Source: PubChem BioAssay (NCI)
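A five-concentration, 48-hour dose response in 96-well plates underlies each endpoint, interpolated linearly between surrounding concentrations. GI50 is the concentration that inhibits growth by half. TGI marks complete inhibition of growth.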

What was measured:
Assay in all cases: NCI tumour cell line growth inhibition, 48 h
[1] = system: 786-0 renal
[2] = system: A498 renal
[3] = system: A549 NSCLC
[4] = system: ACHN renal
[5] = system: BT-549 breast
[6] = system: CAKI-1 renal
[7] = system: CCRF-CEM leukemia
[8] = system: COLO 205 colon
[9] = system: DU-145 prostate
[10] = system: EKVX NSCLC
[11] = system: HCC-2998 colon
[12] = system: HCT-116 colon
[13] = system: HCT-15 colon
[14] = system: HL-60(TB) leukemia
[15] = system: HOP-62 NSCLC
[16] = system: HOP-92 NSCLC
[17] = system: HS 578T breast
[18] = system: HT29 colon
[19] = system: IGROV1 ovarian
[20] = system: K-562 leukemia
[21] = system: KM12 colon
[22] = system: LOX IMVI melanoma
[23] = system: M14 melanoma
[24] = system: MALME-3M melanoma
[25] = system: MCF7 breast
[26] = system: MDA-MB-231 breast
[27] = system: MDA-MB-435
[28] = system: MOLT-4 leukemia
[29] = system: NCI-H226 lung
[30] = system: NCI-H23 lung
[31] = system: NCI-H460 lung
[32] = system: NCI-H522 lung
[33] = system: NCI/ADR-RES ovarian
[34] = system: OVCAR-3 ovarian
[35] = system: OVCAR-4 ovarian
[36] = system: OVCAR-5 ovarian
[37] = system: OVCAR-8 ovarian
[38] = system: PC-3 prostate
[39] = system: RPMI-8226 leukemia
[40] = system: RXF 393 renal
[41] = system: SF-268 CNS
[42] = system: SF-295 CNS
[43] = system: SF-539 CNS
[44] = system: SK-MEL-2 melanoma
[45] = system: SK-MEL-28 melanoma
[46] = system: SK-MEL-5 melanoma
[47] = system: SK-OV-3 ovarian
[48] = system: SN12C renal
[49] = system: SNB-19 CNS
[50] = system: SNB-75 CNS
[51] = system: SR leukemia
[52] = system: SW-620 colon
[53] = system: T-47D breast
[54] = system: TK-10 renal
[55] = system: U251 CNS
[56] = system: UACC-257 melanoma
[57] = system: UACC-62 melanoma
[58] = system: UO-31 renal

SMILES: Cc1ccc(/C(=C/C=C(/C#N)C(N)=O)Sc2ncnn2C)cc1
- GI50 [1]: 4.35 µM
- TGI [1]: 10.9 µM
- TGI [2]: 3.4 µM
- GI50 [3]: 21.6 µM
- TGI [3]: 54.4 µM
- GI50 [4]: 2.94 µM
- TGI [4]: 14.2 µM
- GI50 [5]: 1.84 µM
- TGI [5]: 9.57 µM
- GI50 [6]: 2.73 µM
- TGI [6]: 19.6 µM
- GI50 [7]: 0.941 µM
- TGI [7]: > 70.8 µM
- GI50 [8]: 15.4 µM
- TGI [8]: 35.2 µM
- GI50 [9]: 6.61 µM
- TGI [9]: 18.2 µM
- GI50 [10]: 1.13 µM
- TGI [10]: 14.6 µM
- GI50 [11]: 13 µM
- TGI [11]: 26.4 µM
- GI50 [12]: 4.57 µM
- TGI [12]: 15.3 µM
- GI50 [13]: 4.96 µM
- TGI [13]: 19.9 µM
- GI50 [14]: 12.3 µM
- TGI [14]: 83 µM
- GI50 [15]: 13.1 µM
- TGI [15]: 27.7 µM
- GI50 [16]: 14.1 µM
- TGI [16]: 30.5 µM
- GI50 [17]: 20.1 µM
- TGI [17]: 50.1 µM
- GI50 [18]: 13.3 µM
- TGI [18]: 48.6 µM
- GI50 [19]: 18 µM
- TGI [19]: > 55.1 µM
- GI50 [20]: 5.48 µM
- TGI [20]: > 100 µM
- GI50 [21]: 19.9 µM
- TGI [21]: 44.3 µM
- GI50 [22]: 0.227 µM
- TGI [22]: 1.4 µM
- GI50 [23]: 6.4 µM
- TGI [23]: 19.9 µM
- GI50 [24]: 2.03 µM
- TGI [24]: 14.7 µM
- GI50 [25]: 3.49 µM
- TGI [25]: > 55.3 µM
- GI50 [26]: 9.57 µM
- TGI [26]: 22.9 µM
- GI50 [27]: 3.2 µM
- TGI [27]: 24.7 µM
- GI50 [28]: 10.1 µM
- TGI [28]: > 100 µM
- GI50 [29]: 7.5 µM
- TGI [29]: 25.9 µM
- GI50 [30]: 4.16 µM
- TGI [30]: 15.8 µM
- GI50 [31]: 4.66 µM
- TGI [31]: 48.2 µM
- GI50 [32]: 2.6 µM
- TGI [32]: > 52.5 µM
- GI50 [33]: 7.25 µM
- TGI [33]: > 69.6 µM
- GI50 [34]: 5.95 µM
- TGI [34]: 18.1 µM
- GI50 [35]: 24.4 µM
- TGI [35]: > 72.5 µM
- GI50 [36]: 8.89 µM
- TGI [36]: 23.5 µM
- GI50 [37]: 15.8 µM
- TGI [37]: 43.8 µM
- GI50 [38]: 11.4 µM
- TGI [38]: 25.5 µM
- GI50 [39]: 2.4 µM
- TGI [39]: > 22.9 µM
- GI50 [40]: 6.86 µM
- TGI [40]: 25 µM
- GI50 [41]: 6.84 µM
- TGI [41]: 25.6 µM
- GI50 [42]: 16.4 µM
- TGI [42]: 41.5 µM
- GI50 [43]: 6.19 µM
- TGI [43]: 20.4 µM
- GI50 [44]: > 37.6 µM
- TGI [44]: > 55.7 µM
- GI50 [45]: 14.9 µM
- TGI [45]: 35.7 µM
- GI50 [46]: 6.6 µM
- TGI [46]: 15.1 µM
- GI50 [47]: 23.1 µM
- TGI [47]: > 62.3 µM
- GI50 [48]: 7.89 µM
- TGI [48]: 23.4 µM
- GI50 [49]: 22 µM
- TGI [49]: 50.2 µM
- GI50 [50]: 15.6 µM
- TGI [50]: 30.8 µM
- GI50 [51]: 2.51 µM
- TGI [51]: > 35.2 µM
- GI50 [52]: 3.87 µM
- TGI [52]: 15.6 µM
- GI50 [53]: 18.7 µM
- TGI [53]: 40.1 µM
- GI50 [54]: 14.2 µM
- TGI [54]: 29.1 µM
- GI50 [55]: 3.47 µM
- TGI [55]: 19.1 µM
- GI50 [56]: 17.6 µM
- TGI [56]: 33.6 µM
- GI50 [57]: 11 µM
- TGI [57]: 24.6 µM
- GI50 [58]: 5.53 µM
- TGI [58]: > 65.4 µM
